Test results reported in patent US20190231771A1, “METHODS FOR TREATMENT AND PREVENTION OF OPIOID INDUCED CONSTIPATION USING ORAL COMPOSITIONS OF METHYLNALTREXONE” (Salix Pharmaceuticals, Ltd., priority 2011, published 2019).

How the values were obtained:
Type in all cases: in vivo, human
[1] = Study C: single and multiple dose pharmacokinetics of MNTX and metabolites, MNTX 450 mg PO x 7 days; settings: for t1/2 / AUC0-24 / AUCinf / Cmax / Tmax / Metabolite/MNTX Ratio / R (PO), accumulation factor: 450 mg Tablets oral; for Metabolite/MNTX Ratio: 100*(Metabolite AUC24/MNTX AUC24); for R (PO), accumulation factor: AUC0-24 on Day 7/AUC0-24 on Day 1; for metabolite to MNTX ratios following oral administration: day and AUC basis not stated
Procedure: (§1) Presented herein is a clinical pharmacokinetics study, Study C, as well as Studies A and B. Study A investigated the single and multiple dose pharmacokinetics of methylnaltrexone (MNTX) and its metabolites (M2: methylnaltrexone sulfate; M4: 6α-methylnaltrexol; and M5: 6β-methylnaltrexol) following the subcutaneous administration of 12 mg methylnaltrexone. In Study B, the single and multiple dose pharmacokinetics of methylnaltrexone (MNTX) and its metabolites (M2, M4, and M5) were examined following a 20-minute short intravenous infusion of 24 mg of methylnaltrexone (MNTX).
In addition, the urinary elimination of MNTX was characterized.
(§2) Pharmacokinetic parameters included Cmax, AUCt, AUCinf, tmax, t1/2, % Re24, accumulation factor (R) as defined below and metabolite/parent drug ratio.
(§3) R=Accumulation Factor(based on AUC0-24(ng·h/mL):Day 7 AUC AUC0-24/Day 1 AUC0-24
(§4) Metabolite-Parent Drug ratio(based on ng·h/mL)(%)=100*(Metabolite AUC24/MNTX AUC24)
(§5) Note: AUCinf was used in place of AUC AUC0-24 for R and Metabolite-Parent Drug ratio computations following IV administration.

[2] = Study A: single and multiple dose pharmacokinetics after subcutaneous 12 mg methylnaltrexone; settings: 12 mg SC Injection; for t1/2: day not given, harmonic mean; for R (SC), accumulation factor: AUC0-24 on Day 7/AUC0-24 on Day 1
Procedure: as §1, §2, §3, §4, §5

[3] = Study B: single and multiple dose pharmacokinetics after 20-minute intravenous infusion of 24 mg methylnaltrexone; settings: 24 mg IV infusion; for t1/2 / AUC0-6: day not given; for AUC0-6: mean; for Metabolite ÷ MNTX Ratio / R (IV), accumulation factor: AUCinf used
Procedure: as §1, §2, §3, §4, §5

With C[N@+]1(CC2CC2)CC[C@]23c4c5ccc(O)c4O[C@H]2[C@H](O)CC[C@@]3(O)[C@H]1C5 [M5, 6β-methylnaltrexol] the t1/2 ([1]; Day 1, harmonic mean) was 18.40 h, the AUC0-24 ([1]; Day 1, mean) was 40.84 ng·h/mL and the AUCinf ([1]; Day 1, mean) was 73.61 ng·h/mL. The Cmax ([1]; Day 1, mean) was 3.48 ng/mL, the Tmax ([1]; Day 1, median) was 3.13 h and the “Metabolite/MNTX Ratio” value ([1]; Day 1) was 15.10%. It also gave a t1/2 ([1]; Day 7, harmonic mean) of 28.65 h, an AUC0-24 ([1]; Day 7, mean) of 66.33 ng·h/mL and an AUCinf ([1]; Day 7, mean) of 120.87 ng·h/mL. The Cmax ([1]; Day 7, mean) was 4.89 ng/mL, the Tmax ([1]; Day 7, median) was 2.69 h and the “Metabolite/MNTX Ratio” value ([1]; Day 7) was 21.41%. For the same compound, the “R (PO), accumulation factor” value [1] was 1.76, the “metabolite to MNTX ratios following oral administration” value [1] was 29.78% and the “Metabolite/MNTX Ratio” value ([2]; Day 1) was 6.58%. The AUC0-24 ([2]; Day 1, mean) was 14.41 ng·h/mL, the AUCinf ([2]; Day 1, mean) was 18.5 ng·h/mL and the Cmax ([2]; Day 1, mean) was 1.17 ng/mL. The Tmax ([2]; Day 1, median) was 2.0 h, the “Metabolite/MNTX Ratio” value ([2]; Day 7) was 8.72% and the AUC0-24 ([2]; Day 7, mean) was 19.51 ng·h/mL. For the same compound, the AUCinf ([2]; Day 7, mean) was 19.5 ng·h/mL, the Cmax ([2]; Day 7, mean) was 1.42 ng/mL and the Tmax ([2]; Day 7, median) was 2.0 h. For the same compound, the t1/2 [2] was 8.13 h, the “R (SC), accumulation factor” value [2] was 1.42 and the AUCinf ([3]; Day 1, mean) was 35.10 ng·h/mL. The Cmax ([3]; Day 1, mean) was 3.44 ng/mL, the AUCinf ([3]; Day 7, mean) was 30.0 ng·h/mL and the Cmax ([3]; Day 7, mean) was 8.71 ng/mL. For the same compound, the t1/2 [3] was 12.3 h, the AUC0-6 [3] was 12.3 ng·h/mL and the “Metabolite ÷ MNTX Ratio” value [3] was 8.69%. For the same compound, the “R (IV), accumulation factor” value [3] was 2.91.

Compound methylnaltrexone sulfate [M2] has a t1/2 ([1]; Day 1, harmonic mean) of 7.19 h, an AUC0-24 ([1]; Day 1, mean) of 188.63 ng·h/mL and an AUCinf ([1]; Day 1, mean) of 216.89 ng·h/mL. The Cmax ([1]; Day 1, mean) was 17.15 ng/mL, the Tmax ([1]; Day 1, median) was 4.02 h and the “Metabolite/MNTX Ratio” value ([1]; Day 1) was 72.69%. The t1/2 ([1]; Day 7, harmonic mean) was 13.87 h, the AUC0-24 ([1]; Day 7, mean) was 243.72 ng·h/mL and the AUCinf ([1]; Day 7, mean) was 320.51 ng·h/mL. The Cmax ([1]; Day 7, mean) was 21.00 ng/mL, the Tmax ([1]; Day 7, median) was 4.02 h and the “Metabolite/MNTX Ratio” value ([1]; Day 7) was 79.11%. For the same compound, the “R (PO), accumulation factor” value [1] was 1.30, the “metabolite to MNTX ratios following oral administration” value [1] was 81.0% and the “Metabolite/MNTX Ratio” value ([2]; Day 1) was 28.71%. For the same compound, the AUC0-24 ([2]; Day 1, mean) was 61.34 ng·h/mL, the AUCinf ([2]; Day 1, mean) was 71.9 ng·h/mL and the Cmax ([2]; Day 1, mean) was 6.34 ng/mL. For the same compound, the Tmax ([2]; Day 1, median) was 4.00 h, the “Metabolite/MNTX Ratio” value ([2]; Day 7) was 29.30% and the AUC0-24 ([2]; Day 7, mean) was 66.3 ng·h/mL. For the same compound, the AUCinf ([2]; Day 7, mean) was 66.3 ng·h/mL, the Cmax ([2]; Day 7, mean) was 5.70 ng/mL and the Tmax ([2]; Day 7, median) was 4.00 h. For the same compound, the t1/2 [2] was 5.57 h, the “R (SC), accumulation factor” value [2] was 1.13 and the AUCinf ([3]; Day 1, mean) was 162 ng·h/mL. It also gave a Cmax ([3]; Day 1, mean) of 16.6 ng/mL, an AUCinf ([3]; Day 7, mean) of 176 ng·h/mL and a Cmax ([3]; Day 7, mean) of 37.70 ng/mL. The t1/2 [3] was 5.70 h, the AUC0-6 [3] was 72.3 ng·h/mL and the “Metabolite ÷ MNTX Ratio” value [3] was 46.60%. The “R (IV), accumulation factor” value [3] was 2.61.

C[N@+]1(CC2CC2)CC[C@]23c4c5ccc(O)c4O[C@H]2[C@@H](O)CC[C@@]3(O)[C@H]1C5 [M4, 6α-methylnaltrexol] showed a t1/2 ([1]; Day 1, harmonic mean) of 17.48 h, an AUC0-24 ([1]; Day 1, mean) of 79.73 ng·h/mL and an AUCinf ([1]; Day 1, mean) of 124.23 ng·h/mL. The Cmax ([1]; Day 1, mean) was 9.01 ng/mL, the Tmax ([1]; Day 1, median) was 2.0003 h and the “Metabolite/MNTX Ratio” value ([1]; Day 1) was 29.70%. For the same compound, the t1/2 ([1]; Day 7, harmonic mean) was 31.85 h, the AUC0-24 ([1]; Day 7, mean) was 119.61 ng·h/mL and the AUCinf ([1]; Day 7, mean) was 221.13 ng·h/mL. For the same compound, the Cmax ([1]; Day 7, mean) was 10.77 ng/mL, the Tmax ([1]; Day 7, median) was 2.0007 h and the “Metabolite/MNTX Ratio” value ([1]; Day 7) was 38.50%. The “R (PO), accumulation factor” value [1] was 1.62, the “metabolite to MNTX ratios following oral administration” value [1] was 54.21% and the “Metabolite/MNTX Ratio” value ([2]; Day 1) was 15.81%. It also gave an AUC0-24 ([2]; Day 1, mean) of 34.66 ng·h/mL, an AUCinf ([2]; Day 1, mean) of 38.3 ng·h/mL and a Cmax ([2]; Day 1, mean) of 4.64 ng/mL. The Tmax ([2]; Day 1, median) was 1.0 h, the “Metabolite/MNTX Ratio” value ([2]; Day 7) was 18.75% and the AUC0-24 ([2]; Day 7, mean) was 41.86 ng·h/mL. It also gave an AUCinf ([2]; Day 7, mean) of 41.9 ng·h/mL, a Cmax ([2]; Day 7, mean) of 4.33 ng/mL and a Tmax ([2]; Day 7, median) of 1.0 h. For the same compound, the t1/2 [2] was 7.59 h, the “R (SC), accumulation factor” value [2] was 1.25 and the AUCinf ([3]; Day 1, mean) was 61.30 ng·h/mL. It also gave a Cmax ([3]; Day 1, mean) of 11.0 ng/mL, an AUCinf ([3]; Day 7, mean) of 54.0 ng·h/mL and a Cmax ([3]; Day 7, mean) of 18.10 ng/mL. The t1/2 [3] was 12.28 h, the AUC0-6 [3] was 28.8 ng·h/mL and the “Metabolite ÷ MNTX Ratio” value [3] was 14.90%. The “R (IV), accumulation factor” value [3] was 2.08.
